Data as given in PMC11435438, “Cyclin-Dependent Kinase 8 Represents a Positive Regulator of Cytomegalovirus Replication and a Novel Host Target for Antiviral Strategies” (Pharmaceutics, 2024).

Assays:
ChCMV strain Herberling = assay: ChCMV replication assay in HFFs (immunofluorescence); type: cell-based, chimpanzee cytomegalovirus; conditions: in Pan troglodytes, n = 2
Description: (§1) Similarly, 2 × 10^4 primary embryonic guinea pig fibroblasts GPEFs/96-well, or 1.35 × 10^4 HFFs/96-well, or 2 × 10^4 rat REFs/96-well, or 2 × 10^4 murine MEFs/96-well, were cultivated for infection with GPCMV-GFP, RhCMV-GFP, ChCMV, RCMV-mCherry, or MCMV-GFP, respectively (all approx. MOI of 0.01 referring to 1 × TCID25), and were used for the assessment of antiviral drug activity. To this end, cells were fixed 7 d p.i. (RCMV-mCherry 4 d p.i.), before GFP or mCherry expression was quantified using the Victor X4 microplate reader, or other viral replication markers were measured as explained for the individual experiments. ChCMV replication in HFFs was monitored and quantified by the use of Anti-Cytomegalovirus Antibody Alexa Fluor™ 488. For immunofluorescence staining with Anti-Cytomegalovirus Antibody Alexa Fluor™ 488 (Sigma Aldrich, St. Louis, MO, USA; solution in PBS with 1% FCS), the infected cells were fixed at 7 d p.i. with 10% formalin and permeabilized with 0.2% Triton-x-100. Cell nuclei were counterstained using Höchst dye to be measured using the ImageXpress Pico (Molecular Devices, LLC, San Jose, CA, USA). Mean EC50 values of antiviral efficacy were calculated on the basis of three experimental replicates or as indicated (measurement of fluorescence values in quadruplicate), and percentage values were provided relative to the solvent control (DMSO).

RCMV-mCherry = RCMV-mCherry replication assay in REFs; type: cell-based, rat cytomegalovirus; conditions: in Rattus norvegicus, read-out: EC50 RCMV
Description: as §1

HSV-1 166v VP22-GFP = assay: HSV-1 replication assay in HFFs; type: cell-based, herpes simplex virus type 1; conditions: Human alphaherpesvirus 1, read-out: EC50 HSV-1
Experimental: (§2) Primary human foreskin fibroblasts (HFFs; obtained from clinical samples at Children’s Hospital in Erlangen, Germany), guinea pig embryonic fibroblasts (GPEFs; generously provided by Mark R. Schleiss from the University of Minnesota in Minneapolis, MN, USA), and rat embryonic fibroblasts were cultivated in Eagle’s Minimal Essential Medium (MEM) supplemented with 1 × GlutaMAX™ (both from Thermo Fisher Scientific, Waltham, MA, USA), 10 µg/mL gentamicin, and 10% fetal bovine serum (FBS; Capricorn, Ebsdorfergrund, Germany). Human glioblastoma–astrocytoma cell line (U373) and mouse embryonic fibroblasts (MEFs), both obtained from ATCC (Manassas, VA, USA), and Vero cell sublineage 76 [26], were cultivated in Dulbecco’s modified Eagle’s medium (DMEM) supplemented with 1 × GlutaMAX™, 10 µg/mL gentamicin, and 10% fetal bovine serum. All cultured cells were maintained under the conditions of 37 °C temperature, 5% CO2, and 80% humidity. The regular monitoring for the absence of mycoplasma contamination was conducted using Lonza™ Mycoalert™ (Thermo Fisher Scientific, Waltham, MA, USA). Cultured cell-based viral replication assays were performed by the use of the HCMV strain AD169 (variant U.K.), the recombinant HCMVs AD169-GFP expressing green fluorescent protein [27], TB40 IE2-YFP and TB40-FLuc expressing an IE2-YFP fusion protein or firefly luciferase (FLuc), and Merlin-GFP [31]. […]
(§3) A variety of antiherpesviral and non-herpesviral drug activities were assessed by the cell culture-based viral replication systems, as described elsewhere. […] After incubation at 37 °C for 3 days, iSLK.219 cells were fixed with 10% formalin, washed with PBS, and used for a quantitation of RFP reporter signal by PicoMD counting (ImageXpress® Pico device, Molecular Devices LLC, San Jose, CA, USA). […]

VZV Oka-GFP = assay: VZV replication assay in HFFs; type: cell-based, varicella zoster virus; conditions: Human alphaherpesvirus 3, read-out: EC50 VZV
Experimental: as §2, §3

HHV-6A-GFP = assay: HHV-6A replication assay in J-Jhan cells; type: cell-based, human herpesvirus type 6A; conditions: Homo sapiens, read-out: EC50 HHV-6A
Experimental: as §2, §3

Row | Compound | EC50 (ChCMV strain Herberling) | EC50 (RCMV-mCherry) | EC50 (HSV-1 166v VP22-GFP) | EC50 (VZV Oka-GFP) | EC50 (HHV-6A-GFP)
1 | CN(C)C(=O)Cn1cc(-c2ccc(-c3cncc4ccccc34)cc2)cn1 [BI-1347] | 0.0116 ± 0.0226 µM | 0.00108 ± 0.00149 µM | > 50 µM | 26 ± 10 µM | > 50 µM
2 | Cn1ncc2cc(-c3cnc(N)c(Cl)c3N3CCC4(CCNC4=O)CC3)ccc21 [CCT-151921] | 0.031 ± 0.018 µM | 0.0112 ± 0.0227 µM | > 50 µM | 28 ± 9 µM | 39 ± 21 µM
3 | Cc1n[nH]c2ncc(C(=O)N3CCC[C@H]3c3ccc(Cl)cc3)cc12 [MSC-2530818] | 0.021 ± 0.0265 µM | 0.00487 ± 0.00467 µM | 42.3 ± 4.9 µM | > 50 µM | > 50 µM
